Laboratory results as given in ChEMBL document CHEMBL1131393, “C32-O-imidazol-2-yl-methyl ether derivatives of the immunosuppressant ascomycin with improved therapeutic potential” (Bioorg Med Chem Lett, 1998).

Experiments:
[1] = biological target: Peptidyl-prolyl cis-trans isomerase FKBP1A (Homo sapiens, UniProt P62942); experiment: Binding affinity for FK506 binding protein 12 using [3H]-dihydro FK-506 radioligand was determined
Mus musculus [2] = experiment: Immunosuppressive activity was determined by ex vivo murine-based model of immunosuppression, compound was administered intravenously in mouse.; assay type: functional; conditions: iv
Rattus norvegicus [3] = experiment: Nephrotoxic potential was tested in spontaneously hypertensive rats by administering 0 mg/kg/day intraperitoneally for 5 days; assay type: functional; conditions: route intraperitoneal
Rattus norvegicus [4] = experiment: Nephrotoxic potential was tested in spontaneously hypertensive rats by administering 20 mg/kg/day intraperitoneally for 5 days; assay type: functional; conditions: route intraperitoneal
Rattus norvegicus [5] = experiment: Nephrotoxic potential was tested in spontaneously hypertensive rats by administering 10 mg/kg/day intraperitoneally for 5 days; assay type: functional; conditions: route intraperitoneal
Mus musculus [6] = experiment: Neurotoxic activity was determined by measuring compound-induced hypothermia in BALB/c mice, after administering intravenously in mouse.; assay type: functional; conditions: iv
Mus musculus [7] = experiment: Immunosuppressive activity was determined by ex vivo murine-based model of immunosuppression, compound was administered perorally in mouse.; assay type: functional; conditions: po
Rattus norvegicus [8] = experiment: Nephrotoxic potential was tested in spontaneously hypertensive rats by administering 40 mg/kg/day intraperitoneally for 5 days; assay type: functional; conditions: route intraperitoneal
[9] = Therapeutic index was determined as mouse hypothermia ED50/murine ex vivo ED50; conditions: read-out: Therapeutic index

Chain of Peptidyl-prolyl cis-trans isomerase FKBP1A (P62942 whole entry): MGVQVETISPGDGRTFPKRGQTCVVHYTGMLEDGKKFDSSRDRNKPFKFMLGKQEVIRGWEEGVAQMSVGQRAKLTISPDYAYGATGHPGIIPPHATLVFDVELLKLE

CC[C@@H]1/C=C(\C)C[C@H](C)C[C@H](OC)[C@H]2O[C@@](O)(C(=O)C(=O)N3CCCC[C@H]3C(=O)O[C@H](/C(C)=C/[C@@H]3CC[C@@H](OCOCc4ccccc4)[C@H](OC)C3)[C@H](C)[C@@H](O)CC1=O)[C@H](C)C[C@@H]2OC
EC50 [1]: 12 nM

CC[C@@H]1/C=C(\C)C[C@H](C)C[C@H](OC)[C@H]2O[C@@](O)(C(=O)C(=O)N3CCCC[C@H]3C(=O)O[C@H](/C(C)=C/[C@@H]3CC[C@@H](OCc4nc(-c5ccccc5)c[nH]4)[C@H](OC)C3)[C@H](C)[C@@H](O)CC1=O)[C@H](C)C[C@@H]2OC
EC50 [1]: 22 nM

CC[C@@H]1/C=C(\C)C[C@H](C)C[C@H](OC)[C@H]2O[C@@](O)(C(=O)C(=O)N3CCCC[C@H]3C(=O)O[C@H](/C(C)=C/[C@@H]3CC[C@@H](OCc4nccn4Cc4ccccc4)[C@H](OC)C3)[C@H](C)[C@@H](O)CC1=O)[C@H](C)C[C@@H]2OC
EC50 [1]: 7.4 nM

CC[C@@H]1/C=C(\C)C[C@H](C)C[C@H](OC)[C@H]2O[C@@](O)(C(=O)C(=O)N3CCCC[C@H]3C(=O)O[C@H](/C(C)=C/[C@@H]3CC[C@@H](OC/C=C/c4ccccc4)[C@H](OC)C3)[C@H](C)[C@@H](O)CC1=O)[C@H](C)C[C@@H]2OC
EC50 [1]: 30 nM

C=CC[C@@H]1/C=C(\C)C[C@H](C)C[C@H](OC)[C@H]2O[C@@](O)(C(=O)C(=O)N3CCCC[C@H]3C(=O)O[C@H](/C(C)=C/[C@@H]3CC[C@@H](O)[C@H](OC)C3)[C@H](C)[C@@H](O)CC1=O)[C@H](C)C[C@@H]2OC [TACROLIMUS ANHYDROUS]
ED50 (Mus musculus [2]): 0.24 mg/kg | BUN (Rattus norvegicus [3]): 20 mg/dL | BUN (Rattus norvegicus [4]): 43 mg/dL | BUN (Rattus norvegicus [5]): 22 mg/dL | ED50 (Mus musculus [6]): 3.5 mg/kg | ED50 (Mus musculus [7]): 2.6 mg/kg | BUN (Rattus norvegicus [8]): 76 mg/dL | selectivity ratio [9]: 15
